Laboratory results from patent US8188089B2, “Tylophorine analogs as antitumor agents” (The University of North Carolina at Chapel Hill, priority 2006, dated 2012).
Where a name gives a salt, the structure may show the parent alone. Blank lines part the entries; values can stand above or below the compound they belong to.

Assays:
[1] = test system: human A549 lung cancer cell line; assay: Cell growth inhibition assay (SRB), Example 1; assay type: cell-based; settings: for IC50: 72 h, A549, SRB, 3 days exposure; for EC50: table footnotes of Example 1, A549
Source text: Results and discussion. […] Etoposide (VP-16) was used as the reference compound.
Cell Growth Inhibition Assay. The human A549 lung cancer cell line was used for the cytotoxicity screening of PBT derivatives using the cell-based sulforhodamine B (SRB) microtitre plate assay. […] Duration of compound exposure was 3 days.

[2] = test system: human A549 lung cancer cell line; assay: Cell growth inhibition assay (SRB), Example 2, A549; assay type: cell-based
Source text: Cell Growth Inhibition Assay. The sulforhodamine B assay was used according to the procedures developed and validated at NCI. […] The values were interpolated from dose-response data.

DU-145 (prostate) = assay: Cell growth inhibition assay (SRB), Example 2, DU-145; assay type: cell-based, human; settings: Table 6, 72-h continuous treatment
Source text: (§1) Drug-Resistance Study. Twelve active compounds [including four hydrochloride salts (18b, 22b, 24b, 32b) of corresponding active free bases (18a, 22a, 24a, 32a)] were further screened against an extended panel of human tumor cell lines including DU-145 (prostate), ZR-751 (breast), KB (nasopharyngeal), and KB-VIN (multidug-resistant KB subline) in order to explore their antitumor spectra and drug-resistance profiles. Four compounds were used as reference compounds. Antofine is a positional isomer of tylophorine isolated from Asclepiadaceae by Dr. T. S. Wu in Taiwan (Wu, P. L. et al., Heterocycles 2002; 57:2401). […] Doxorubicin (Adriamycin), vincristine, and etoposide (VP-16, Vepesid®) are widely used anticancer agents for treating a range of solid tumors.
(§2) Cell Growth Inhibition Assay. The sulforhodamine B assay was used according to the procedures developed and validated at NCI. The in vitro anticancer activities are expressed as ED50 values, which is the test compound concentration (μM) that reduced the cell number by 50% after 72-h of continuous treatment. The values were interpolated from dose-response data. Each test was performed in triplicate with variation less than 5%. The ED50 values determined in each of independent tests varied less than 10%. Compound stock solutions were prepared in DMSO with the final solvent concentration ≦1% DMSO (v/v), a concentration without effect on cell replication. The cells were cultured at 37° C. in RPMI-1640 supplemented with 25 mM N-2-hydroxyethylpiperazine-N′-2-ethanesulfonic acid (HEPES), […], 10% (v/v) fetal bovine serum, and 100 μg/mL kanamycin in a humidified atmosphere containing 5% CO2.

KB (nasopharyngeal) = assay: Cell growth inhibition assay (SRB), Example 2, KB; assay type: cell-based, human; settings: Table 6, 72-h continuous treatment
Source text: as §1, §2

[3] = test system: KB-VIN (multidug-resistant KB subline); assay: Cell growth inhibition assay (SRB), Example 2, KB-VIN; assay type: cell-based, human; settings: Table 6, 72-h continuous treatment
Source text: as §1, §2

ZR-751 (breast) = assay: Cell growth inhibition assay (SRB), Example 2, ZR-751; assay type: cell-based, human; settings: Table 6, 72-h continuous treatment
Source text: as §1, §2

[4] = Homo sapiens, Table 1, NA = Not Active
[5] = Homo sapiens, A549, 72 h, Table 4, ED50, 72-h continuous treatment, NA = not active, read-out: A549 (μM), in vitro anticancer activity against A549 lung cancer cells
[6] = Homo sapiens, A549, 72 h, Table 6, 72-h continuous treatment, read-out: EC50 (μM) A549
[7] = Table 4, ED50, 72-h continuous treatment, NA = not active, read-out: A549 (μM), in vitro anticancer activity against A549 lung cancer cells
[8] = Table 6, 72-h continuous treatment, read-out: EC50 (μM) A549

Compound: O=C(O)[C@@H]1CCCN1C(=O)c1cc2cc3c(cc2c2cc(O)ccc12)OCO3 [Compound 22, N-(2,3-Methylenedioxy-6-hydroxy-phenanthr-9-ylcarbonyl)-L-proline]
IC50 [1, 4]: 39700 nM
melting point: 230 to 231 °C

Compound: COc1ccc2c(CN3CCC[C@H]3CO)cc3cc4c(cc3c2c1)OCO4 [Compound 32, N-(2,3-Methylenedioxy-6-methoxy-phenanthr-9-ylmethyl)-L-prolinol]
IC50 [1, 4]: 700 nM
melting point: 138 to 139 °C

melting point: 293 to 295 °C
Compound: COc1ccc2c(C(=O)O)cc3cc4c(cc3c2c1)OCO4 [Compound 7b, 2,3-Methylenedioxy-6-methoxy-phenanthrene-9-carboxylic acid]

Compound: COc1ccc2c(CN3CCC(CCO)CC3)cc3cc4c(cc3c2c1)OCO4 [Compound 32a, N-(2,3-Methylenedioxy-6-methoxy-phenanthr-9-ylmethyl)-4-piperidineethanol]
EC50 [2, 5]: 0.15 µM
EC50 [2, 6]: 0.15 µM
EC50 (DU-145 (prostate); Homo sapiens, DU-145, 72 h): 0.15 µM
melting point: 148 to 149 °C
EC50 (KB (nasopharyngeal)): 0.42 µM
EC50 [3]: 0.5 µM
EC50 (ZR-751 (breast); Homo sapiens, ZR-75-1, 72 h): 0.03 µM

Compound: O=C(O)CCCCCNCc1cc2cc3c(cc2c2cc(OCc4ccccc4)ccc12)OCO3 [Compound 12, N-(2,3-Methylenedioxy-6-benzyloxy-phenanthr-9-ylmethyl)-6-aminohexanoic acid]
IC50 [1, 4]: 1600 nM
melting point: 184 to 186 °C

Compound: COc1ccc2c(CNCCCCCCO)cc3cc4c(cc3c2c1)OCO4 [Compound 22a, N-(2,3-Methylenedioxy-6-methoxy-phenanthr-9-ylmethyl)-6-aminohexanol]
EC50 [2, 5]: 0.2 µM
EC50 [2, 6]: 0.16 µM
EC50 (DU-145 (prostate); Homo sapiens, DU-145, 72 h): 0.04 µM
melting point: 145 to 147 °C
EC50 (KB (nasopharyngeal); Homo sapiens, 72 h): 0.25 µM
EC50 [3]: 0.35 µM
EC50 (ZR-751 (breast); Homo sapiens, ZR-75-1, 72 h): 0.13 µM

Compound: COC(=O)CCCCCNC(=O)c1cc2cc3c(cc2c2cc(OCc4ccccc4)ccc12)OCO3 [Compound 10, Methyl N-(2,3-methylenedioxy-6-benzyloxy-phenanthr-9-ylcarbonyl)-6-aminohexanoate]
IC50 [1, 4]: 41200 nM

melting point: 146 to 148 °C
Compound: COc1ccc2c(CNCCCCCCCCCCC(=O)O)cc3cc4c(cc3c2c1)OCO4

melting point: 133 to 134 °C
Compound: COc1ccc2c(CNCCCCCC(=O)O)cc3cc(OC)c(OC)cc3c2c1

IC50 ([1]; Homo sapiens, Table 3): 52200 nM
Compound: COc1ccc(/C(=C\c2ccc(OC)c(OC)c2)CN2CCC[C@H]2CO)cc1 [Compound 42, {1-[3-(3,4-Dimethoxyphenyl)-2-(4-methoxyphenyl)allyl]-pyrrolidin-2-yl}-methanol]

IC50 ([1]; Homo sapiens, Table 3): 45200 nM
Compound: COc1ccc(/C(=C\c2cc(OC)c(OC)cc2[N+](=O)[O-])CN2CCC[C@H]2C(=O)O)cc1 [Compound 40, 1-[3-(4,5-Dimethoxy-2-nitrophenyl)-2-(4-methoxyphenyl)-allyl]-pyrrolidine-2-carboxylic acid]

EC50 [1]: 6300 nM
Compound: COc1ccc2c(CN3CCCC[C@H]3CO)cc3cc(OC)c(OC)cc3c2c1 [Compound 38, N-(2,3,6-Trimethoxyphenanthr-9-ylmethyl)-L-2-piperidinemethanol]

EC50 [2, 7]: 0.08 µM
EC50 [2, 8]: 0.08 µM
EC50 (DU-145 (prostate)): 0.03 µM
EC50 (KB (nasopharyngeal)): 0.24 µM
EC50 [3]: 0.09 µM
Compound: COc1ccc2c(CN3CCC(CO)CC3)cc3cc4c(cc3c2c1)OCO4 [Compound 24a, N-(2,3-Methylenedioxy-6-methoxy-phenanthr-9-ylmethyl)-L-4-piperidinemethanol]
EC50 (ZR-751 (breast)): 0.03 µM

Compound: COc1ccc2c(CN3CCCC[C@H]3CO)cc3cc4c(cc3c2c1)OCO4 [Compound 18b, N-(2,3-Methylenedioxy-6-methoxy-phenanthr-9-ylmethyl)-L-2-piperidinemethanol hydrochloride]
EC50 [2, 8]: 0.16 µM
EC50 (DU-145 (prostate)): 0.09 µM
EC50 (KB (nasopharyngeal)): 0.12 µM
EC50 [3]: 0.09 µM
EC50 (ZR-751 (breast)): 0.08 µM

Compound: O=C(O)CCCCCNC(=O)c1cc2cc3c(cc2c2cc(OCc4ccccc4)ccc12)OCO3 [Compound 11, N-(2,3-methylenedioxy-6-benzyloxy-phenanthr-9-ylcarbonyl)-6-aminohexanoic acid]
IC50 [1, 4]: 41200 nM
melting point: 198 to 200 °C

melting point: 145 to 146 °C
Compound: COc1ccc2c(CNCCCCC(=O)O)cc3cc4c(cc3c2c1)OCO4

IC50 ([1]; Homo sapiens, Table 3): 11700 nM
Compound: COc1ccc(/C(=C\c2cc(OC)c(OC)cc2[N+](=O)[O-])CN2CCC[C@H]2CO)cc1 [Compound 41, {1-[3-(4,5-Dimethoxy-2-nitrophenyl)-2-(4-methoxyphenyl)-allyl]-pyrrolidin-2-yl}-methanol]

Compound: CC[C@H]1CN2CCc3cc(OC)c(OC)cc3[C@@H]2C[C@@H]1C[C@H]1NCCc2cc(OC)c(OC)cc21 [Emetine, reference compound]
EC50 [2, 5]: 0.04 µM
EC50 [2, 6]: 0.04 µM
EC50 (DU-145 (prostate); Homo sapiens, DU-145, 72 h): 0.06 µM
EC50 (KB (nasopharyngeal); Homo sapiens, 72 h): 0.04 µM
EC50 ([3]; Homo sapiens, KBVIN, 72 h): > 2 µM
EC50 (ZR-751 (breast); Homo sapiens, ZR-75-1, 72 h): 0.1 µM

Compound: COc1ccc2c3c(c4cc(OC)c(OC)cc4c2c1)C[C@H]1CCCN1C3 [Antofine, reference compound]
EC50 [2, 7]: 0.008 µM
EC50 [2, 8]: 0.008 µM
EC50 (DU-145 (prostate)): 0.009 µM
EC50 (KB (nasopharyngeal)): 0.013 µM
EC50 [3]: 0.009 µM
EC50 (ZR-751 (breast)): 0.008 µM

EC50 [2, 5]: 0.04 µM
EC50 [2, 6]: 0.04 µM
EC50 (DU-145 (prostate); Homo sapiens, DU-145, 72 h): 0.085 µM
EC50 (KB (nasopharyngeal); Homo sapiens, 72 h): 0.006 µM
EC50 ([3]; Homo sapiens, KBVIN, 72 h): 5.3 µM
Compound: CC[C@]1(O)C[C@H]2CN(CCc3c([nH]c4ccccc34)[C@@](C(=O)OC)(c3cc4c(cc3OC)N(C=O)[C@H]3[C@@](O)(C(=O)OC)[C@H](OC(C)=O)[C@]5(CC)C=CCN6CC[C@]43[C@@H]65)C2)C1 [Vincristine, reference compound]
EC50 (ZR-751 (breast); Homo sapiens, ZR-75-1, 72 h): 0.04 µM

Compound: COc1ccc2c(CN3CCCC[C@H]3CO)cc3cc4c(cc3c2c1)OCO4 [Compound 18a, N-(2,3-Methylenedioxy-6-methoxy-phenanthr-9-ylmethyl)-L-2-piperidinemethanol]
EC50 [2, 8]: 0.2 µM
EC50 (DU-145 (prostate)): 0.21 µM
EC50 (ZR-751 (breast)): 0.1 µM

melting point: 197 to 199 °C
Compound: O=C(O)CCCCNCc1cc2cc3c(cc2c2cc(OCc4ccccc4)ccc12)OCO3

EC50 [2, 5]: 0.18 µM
EC50 [2, 6]: 0.18 µM
EC50 (DU-145 (prostate); Homo sapiens, DU-145, 72 h): 0.13 µM
EC50 (KB (nasopharyngeal); Homo sapiens, 72 h): 0.18 µM
EC50 ([3]; Homo sapiens, KBVIN, 72 h): > 4 µM
Compound: COc1cccc2c1C(=O)c1c(O)c3c(c(O)c1C2=O)C[C@@](O)(C(=O)CO)C[C@@H]3O[C@H]1C[C@H](N)[C@H](O)[C@H](C)O1 [Doxorubicin, reference compound]
EC50 (ZR-751 (breast); Homo sapiens, ZR-75-1, 72 h): 0.04 µM

melting point: 122 to 124 °C
Compound: CCCCCC(CCCCCO)NCc1cc2cc3c(cc2c2cc(OC)ccc12)OCO3 (stereo not drawn)

EC50 [1]: 9700 nM
Compound: COc1ccc2c(CN3CCCC[C@H]3C(=O)O)cc3cc(OC)c(OC)cc3c2c1 [Compound 37, N-(2,3,6-Trimethoxyphenanthr-9-ylmethyl)-L-2-piperidinecarboxylic acid]

melting point: 125 to 126 °C
Compound: COc1ccc2c(CNCCCCCO)cc3cc4c(cc3c2c1)OCO4

IC50 ([1]; Homo sapiens, Table 3): 80000 nM
Compound: COc1ccc(/C(=C\c2cc(OC)c(OC)cc2[N+](=O)[O-])C(=O)N2CCC[C@H]2C(=O)O)cc1 [Compound 39, 1-[3-(4,5-Dimethoxy-2-nitrophenyl)-2-(4-methoxyphenyl)-acryloyl]-pyrrolidine-2-carboxylic acid]

melting point: 167 to 169 °C
Compound: COc1ccc2c(CNCCCCCC(=O)O)cc3cc4c(cc3c2c1)OCO4

melting point: 263 to 265 °C
Compound: O=C(O)c1cc2cc3c(cc2c2cc(OCc4ccccc4)ccc12)OCO3 [Compound 7a, 2,3-Methylenedioxy-6-benzyloxy-phenanthrene-9-carboxylic acid]

Compound: O=C(O)[C@@H]1CCCN1Cc1cc2cc3c(cc2c2cc(OCc4ccccc4)ccc12)OCO3 [Compound 18, N-(2,3-Methylenedioxy-6-benzyloxy-phenanthr-9-ylmethyl)-L-proline]
IC50 [1, 4]: 4400 nM
EC50 ([1]; Homo sapiens): 4400 nM
melting point: 147 to 149 °C

melting point: 241 to 243 °C
Compound: COc1ccc2c(C(=O)O)cc3cc(OC)c(OC)cc3c2c1 [Compound 7c, 2,3,6-Trimethoxyphenanthrene-9-carboxylic acid]

melting point: 175 to 177 °C
Compound: CC(CCCCO)NCc1cc2cc3c(cc2c2cc(OCc4ccccc4)ccc12)OCO3 (stereo not drawn)
